Values joined by “and” are separate entries in the source; they are usually repeats but may differ in a detail not shown here. Identical values can stand only once.
Assay: xn = mol fraction of the nth substance listed

OCCN(CCO)CCO + O
viscosity
Details	293.15 K	298.15 K	303.15 K	308.15 K	313.15 K	323.15 K
101 kPa, x1 = 0.029	2 mPa·s	–	–	–	–	0.988 mPa·s
101 kPa, x1 = 0.0434	–	2.499 mPa·s	2.194 mPa·s	–	1.661 mPa·s	–
101 kPa, x1 = 0.0649	–	3.802 mPa·s	3.446 mPa·s	–	2.406 mPa·s	–
101 kPa, x1 = 0.0966	–	6.839 mPa·s	5.658 mPa·s	–	4.005 mPa·s	–
101 kPa, x1 = 0.11	8.51 mPa·s	–	–	–	–	3.24 mPa·s
101 kPa, x1 = 0.1312	–	11.65 mPa·s	9.419 mPa·s	–	6.419 mPa·s	–
101 kPa, x1 = 0.1769	–	20.76 mPa·s	16.89 mPa·s	–	10.97 mPa·s	–
101 kPa, x1 = 0.27	64.6 mPa·s	–	–	–	–	14.8 mPa·s
101 kPa, x1 = 0.2724	–	54.52 mPa·s	41.37 mPa·s	–	25.21 mPa·s	–
101 kPa, x1 = 0.3481	–	96.45 mPa·s	73.09 mPa·s	–	41.11 mPa·s	–
101 kPa, x1 = 0.4784	–	187.3 mPa·s	131.4 mPa·s	–	70.8 mPa·s	–
101 kPa, x1 = 0.5814	–	278.1 mPa·s	187.2 mPa·s	–	97.64 mPa·s	–
101 kPa, x1 = 0.7166	–	390.4 mPa·s	269.9 mPa·s	–	138.2 mPa·s	–
101 kPa, x1 = 0.8347	–	472.7 mPa·s	328.9 mPa·s	–	166.2 mPa·s	–
101 kPa, x1 = 0.9177	–	542.7 mPa·s	369.7 mPa·s	–	184.6 mPa·s	–
101 kPa, x1 = 0.9724	–	585.3 mPa·s	396.2 mPa·s	–	196.3 mPa·s	–
101.3 kPa, x1 = 0.0064	1.141 mPa·s	0.998 mPa·s	0.872 mPa·s	0.765 mPa·s	0.664 mPa·s	0.555 mPa·s
101.3 kPa, x1 = 0.0134	1.33 mPa·s	1.161 mPa·s	1.039 mPa·s	0.914 mPa·s	0.801 mPa·s	0.688 mPa·s
101.3 kPa, x1 = 0.0294	–	1.789 mPa·s	1.559 mPa·s and 1.57 mPa·s	1.369 mPa·s	–	0.988 mPa·s

Cc1ccccc1C + c1ccccc1
viscosity [mPa·s]
Details	293.15 K	303.15 K	308.15 K	313.15 K	318.15 K	323.15 K
101 kPa, x2 = 0.1	–	0.657	0.622	0.594	0.572	–
101 kPa, x2 = 0.2	–	0.665	0.631	0.597	0.573	–
101 kPa, x2 = 0.4	–	0.69	0.668	0.599	0.574	–
101 kPa, x2 = 0.6	–	0.652	0.623	0.592	0.55	–
101 kPa, x2 = 0.802	–	0.645	0.61	0.577	0.552	–
101 kPa, x2 = 0.902	–	0.67	0.641	0.623	0.587	–
101.33 kPa, x2 = 0.1	–	0.657	0.622	0.594	0.572	–
101.33 kPa, x2 = 0.2	–	0.665	0.631	0.597	0.573	–
101.33 kPa, x2 = 0.2114	0.749	0.657	–	0.583	–	0.519
101.33 kPa, x2 = 0.4	–	0.69	0.668	0.599	0.574	–
101.33 kPa, x2 = 0.4129	0.71	0.625	–	0.554	–	0.493
101.33 kPa, x2 = 0.5938	0.685	0.601	–	0.531	–	0.474
101.33 kPa, x2 = 0.6	–	0.652	0.623	0.592	0.55	–
101.33 kPa, x2 = 0.7195	0.669	0.585	–	0.517	–	0.461
101.33 kPa, x2 = 0.802	–	0.645	0.61	0.577	0.552	–
101.33 kPa, x2 = 0.8514	0.658	0.575	–	0.506	–	0.45
101.33 kPa, x2 = 0.902	–	0.67	0.641	0.623	0.587	–

CCCCCCCCCCCC + CCCCCCCCCC
298.15 K, 101.33 kPa
Details	viscosity [mPa·s]
x2 = 0.1071	1.294
x2 = 0.2012	1.243
x2 = 0.3014	1.198
x2 = 0.4079	1.146
x2 = 0.5077	1.092
x2 = 0.6096	1.036
x2 = 0.7085	0.9801
x2 = 0.8052	0.9488
x2 = 0.9045	0.9028

Cc1ccc(N)cc1 + O=[N+]([O-])c1ccccc1O
323.1 K, 101 kPa
Details	viscosity [mPa·s]
x2 = 0.296	1.835
x2 = 0.75	2.15

CCCCCCCCCCCC + CCCCCCC
Details	viscosity
298 K, 101 kPa, x1 = 0.5	0.7879 mPa·s and 0.7868 mPa·s
298.15 K, 101.33 kPa, x2 = 0.1076	1.219 mPa·s
298.15 K, 101.33 kPa, x2 = 0.2092	1.086 mPa·s
298.15 K, 101.33 kPa, x2 = 0.3109	0.9598 mPa·s
298.15 K, 101.33 kPa, x2 = 0.4064	0.8662 mPa·s
298.15 K, 101.33 kPa, x2 = 0.5062	0.7707 mPa·s
298.15 K, 101.33 kPa, x2 = 0.6081	0.6772 mPa·s
298.15 K, 101.33 kPa, x2 = 0.7046	0.5964 mPa·s
298.15 K, 101.33 kPa, x2 = 0.8043	0.5157 mPa·s
298.15 K, 101.33 kPa, x2 = 0.9039	0.4454 mPa·s
318 K, 101 kPa, x1 = 0.5	0.6058 mPa·s and 0.6054 mPa·s

COCCOCCO + CCOC(=O)OCC
298.15 K, 101.33 kPa
Details	viscosity [mPa·s]
x1 = 0.0177	0.765
x1 = 0.0409	0.784
x1 = 0.0525	0.794
x1 = 0.0688	0.809
x1 = 0.0808	0.819
x1 = 0.0974	0.834
x1 = 0.1182	0.856
x1 = 0.1376	0.878
x1 = 0.1665	0.911
x1 = 0.1973	0.949
x1 = 0.2247	0.98
x1 = 0.26	0.984
x1 = 0.3011	1.095
x1 = 0.3362	1.148
x1 = 0.4104	1.282
x1 = 0.438	1.337
x1 = 0.4644	1.394
x1 = 0.4835	1.436
x1 = 0.5151	1.511
x1 = 0.5529	1.61
x1 = 0.5929	1.721
x1 = 0.6445	1.874
x1 = 0.6774	1.978
x1 = 0.7326	2.167
x1 = 0.7642	2.295
x1 = 0.8034	2.456
x1 = 0.8312	2.576
x1 = 0.861	2.709
x1 = 0.8942	2.87
x1 = 0.9328	3.065
x1 = 0.9487	3.15
x1 = 0.9554	3.189
x1 = 0.9613	3.221
